Experimental data as given in patent US20260167619A2, “INDOLINE COMPOUNDS AND DERIVATIVES AS EGFR INHIBITORS” (BeOne Medicines I GmbH, priority 2020, published 2026).

Assays:
[1] = target: T1, EGFR (aa668-1210, Invitrogen) (Homo sapiens, UniProt P00533); experiment: Biochemical EGFR inhibition assay (TR-FRET), wild-type EGFR; settings: ATP at Km, 15 min pre-incubation, 60 min reaction; read-out: WT (Km ATP) IC50
T1 construct: EGFR (aa668-1210, Invitrogen); purchased Invitrogen
Outline: (§1)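 Recombinant kinase domains pre-incubated with compound 15 min at room temperature in HEPES pH 7.5 buffer, then reacted 60 min with ATP at Km and biotin-poly GT substrate. Phosphotyrosine detected by TR-FRET (Eu-anti-pTyr/streptavidin-XL665, 665/620 nm ratio); IC50 from four-parameter logistic fit.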

[2] = target: T2, EGFR(L858R_T790M_C797S) (aa695-end, Invitrogen) (Homo sapiens, UniProt P00533, C797S/L858R/T790M); experiment: Biochemical EGFR inhibition assay (TR-FRET), L858R/T790M/C797S mutant; settings: ATP at Km, 15 min pre-incubation, 60 min reaction; read-out: LR_TM_CS (Km ATP) IC50
T2 construct: purchased Invitrogen
T2 sequence (P00533 695-1210 T790M/C797S/L858R): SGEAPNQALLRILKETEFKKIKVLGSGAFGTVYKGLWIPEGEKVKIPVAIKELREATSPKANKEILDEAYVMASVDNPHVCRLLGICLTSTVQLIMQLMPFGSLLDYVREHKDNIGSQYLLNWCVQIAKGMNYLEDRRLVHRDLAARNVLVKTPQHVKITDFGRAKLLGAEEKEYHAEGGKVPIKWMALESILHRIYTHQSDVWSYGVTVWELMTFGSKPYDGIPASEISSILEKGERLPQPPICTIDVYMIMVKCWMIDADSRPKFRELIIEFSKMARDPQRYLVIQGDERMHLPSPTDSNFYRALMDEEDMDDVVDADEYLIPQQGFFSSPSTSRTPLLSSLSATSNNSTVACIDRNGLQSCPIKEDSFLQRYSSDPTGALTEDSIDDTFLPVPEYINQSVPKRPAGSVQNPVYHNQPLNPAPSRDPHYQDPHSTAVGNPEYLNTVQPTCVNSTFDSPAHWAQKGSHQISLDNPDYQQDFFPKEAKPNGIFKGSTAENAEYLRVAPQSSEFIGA
Outline: as §1

[3] = target: EGFR(Dell9_T790M_C797S) (aa 669-1210, in house) (Homo sapiens, UniProt P00533, T790M/C797S, form not given); experiment: Biochemical EGFR inhibition assay (TR-FRET), Del19/T790M/C797S mutant; settings: ATP at Km, 15 min pre-incubation, 60 min reaction; read-out: Del_TM_CS (Km ATP) IC50
EGFR(Dell9_T790M_C797S) (aa 669-1210, in house), sequence (P00533 with tags, fused parts or gaps DEL746-750/T790M/C797S, form open): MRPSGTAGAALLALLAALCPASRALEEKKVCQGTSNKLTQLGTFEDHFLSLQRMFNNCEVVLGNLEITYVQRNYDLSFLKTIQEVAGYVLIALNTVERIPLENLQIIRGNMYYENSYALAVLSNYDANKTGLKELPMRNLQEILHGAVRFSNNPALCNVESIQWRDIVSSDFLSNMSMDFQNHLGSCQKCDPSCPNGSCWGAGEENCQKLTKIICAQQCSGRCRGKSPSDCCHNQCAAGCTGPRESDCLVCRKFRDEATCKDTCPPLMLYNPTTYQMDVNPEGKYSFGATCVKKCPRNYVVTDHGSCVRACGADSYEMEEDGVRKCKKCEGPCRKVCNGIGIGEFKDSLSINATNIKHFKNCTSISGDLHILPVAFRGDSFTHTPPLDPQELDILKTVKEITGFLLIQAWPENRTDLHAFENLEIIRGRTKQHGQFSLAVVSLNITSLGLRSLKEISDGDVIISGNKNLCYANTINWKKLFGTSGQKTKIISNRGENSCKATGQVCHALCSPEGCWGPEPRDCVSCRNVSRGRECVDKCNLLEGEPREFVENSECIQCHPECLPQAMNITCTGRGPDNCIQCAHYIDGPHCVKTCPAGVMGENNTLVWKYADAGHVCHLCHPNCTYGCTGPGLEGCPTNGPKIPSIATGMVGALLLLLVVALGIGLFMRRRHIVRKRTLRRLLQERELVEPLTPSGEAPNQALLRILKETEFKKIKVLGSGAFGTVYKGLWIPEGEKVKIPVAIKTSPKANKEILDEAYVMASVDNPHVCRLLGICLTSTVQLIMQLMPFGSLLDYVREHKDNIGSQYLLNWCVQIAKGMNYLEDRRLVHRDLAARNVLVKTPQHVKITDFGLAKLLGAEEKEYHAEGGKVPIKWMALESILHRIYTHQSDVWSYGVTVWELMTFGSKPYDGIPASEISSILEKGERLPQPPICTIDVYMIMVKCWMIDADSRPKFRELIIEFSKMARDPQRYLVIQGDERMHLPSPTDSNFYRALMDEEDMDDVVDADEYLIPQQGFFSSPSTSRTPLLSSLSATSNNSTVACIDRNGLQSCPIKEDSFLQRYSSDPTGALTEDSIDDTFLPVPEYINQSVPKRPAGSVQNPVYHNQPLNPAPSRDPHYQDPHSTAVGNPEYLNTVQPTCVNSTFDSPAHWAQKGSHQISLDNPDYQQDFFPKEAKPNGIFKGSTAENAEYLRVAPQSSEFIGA
Outline: as §1

BaF3-WT cells = BaF3-WT cells (Homo sapiens, UniProt P00533); experiment: Cell antiproliferation assay (CellTiter-Glo), BaF3-WT; type: cell-based; settings: 48 h treatment, read-out: BaF3-WT IC50
BaF3-WT cells, sequence (P00533 whole entry, change not shown): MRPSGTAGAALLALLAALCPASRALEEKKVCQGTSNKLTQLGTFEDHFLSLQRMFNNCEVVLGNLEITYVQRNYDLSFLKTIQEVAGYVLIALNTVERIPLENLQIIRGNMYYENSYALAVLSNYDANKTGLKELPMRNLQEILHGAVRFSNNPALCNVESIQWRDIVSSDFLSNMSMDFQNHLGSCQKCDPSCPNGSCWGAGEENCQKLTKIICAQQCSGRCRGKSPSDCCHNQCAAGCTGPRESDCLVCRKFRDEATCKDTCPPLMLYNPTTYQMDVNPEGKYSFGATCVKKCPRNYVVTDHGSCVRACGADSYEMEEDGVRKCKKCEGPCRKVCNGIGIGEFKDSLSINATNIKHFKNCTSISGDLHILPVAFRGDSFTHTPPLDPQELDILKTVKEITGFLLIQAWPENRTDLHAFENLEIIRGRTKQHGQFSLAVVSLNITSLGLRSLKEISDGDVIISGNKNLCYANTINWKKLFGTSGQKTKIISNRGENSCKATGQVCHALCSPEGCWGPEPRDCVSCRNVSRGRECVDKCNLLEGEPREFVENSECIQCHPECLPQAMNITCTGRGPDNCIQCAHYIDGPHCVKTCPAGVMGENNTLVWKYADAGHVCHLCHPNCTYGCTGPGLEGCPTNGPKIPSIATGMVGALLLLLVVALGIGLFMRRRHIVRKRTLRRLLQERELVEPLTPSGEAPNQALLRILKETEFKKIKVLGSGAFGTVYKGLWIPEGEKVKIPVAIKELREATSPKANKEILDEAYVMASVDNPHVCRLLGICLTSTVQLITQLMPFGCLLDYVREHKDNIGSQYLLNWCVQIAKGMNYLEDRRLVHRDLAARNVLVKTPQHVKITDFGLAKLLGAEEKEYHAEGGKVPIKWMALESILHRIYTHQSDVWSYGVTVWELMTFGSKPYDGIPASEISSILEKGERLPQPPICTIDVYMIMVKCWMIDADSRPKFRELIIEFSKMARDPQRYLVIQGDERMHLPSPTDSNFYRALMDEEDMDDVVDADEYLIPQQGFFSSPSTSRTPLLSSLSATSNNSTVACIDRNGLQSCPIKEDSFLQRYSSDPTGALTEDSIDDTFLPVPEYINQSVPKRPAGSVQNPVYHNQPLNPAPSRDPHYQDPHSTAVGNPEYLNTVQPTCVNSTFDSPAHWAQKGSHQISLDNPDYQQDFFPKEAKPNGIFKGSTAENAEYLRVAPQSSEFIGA
Outline: (§2)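 Cells exposed 48 h to 8 doses from 5-fold serial dilution (500× DMSO stocks from 5 mM), final 0.2% DMSO. Viability by CellTiter-Glo luminescence; IC50 from four-parameter fit of percent inhibition versus concentration.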

BaF3-LR_TM_CS cells = BaF3-LR_TM_CS cells (Homo sapiens, UniProt P00533, T790M/C797S/L858R, cells depend on it); experiment: Cell antiproliferation assay (CellTiter-Glo), BaF3-LR_TM_CS; type: cell-based; settings: 48 h treatment, read-out: BaF3-LR_TM_CS IC50
Outline: as §2

BaF3-Del_TM_CS cells = BaF3-Del_TM_CS cells (Homo sapiens, UniProt P00533, T790M/C797S, cells depend on it, form not given); experiment: Cell antiproliferation assay (CellTiter-Glo), BaF3-Del_TM_CS; type: cell-based; settings: 48 h treatment, read-out: BaF3-Del_TM_CS IC50
BaF3-Del_TM_CS cells, sequence (P00533 with tags, fused parts or gaps DEL746-750/T790M/C797S, form open): as the sequence (P00533 with tags, fused parts or gaps DEL746-750/T790M/C797S, form open) above
Outline: as §2

T1 sequence (P00533 668-1210): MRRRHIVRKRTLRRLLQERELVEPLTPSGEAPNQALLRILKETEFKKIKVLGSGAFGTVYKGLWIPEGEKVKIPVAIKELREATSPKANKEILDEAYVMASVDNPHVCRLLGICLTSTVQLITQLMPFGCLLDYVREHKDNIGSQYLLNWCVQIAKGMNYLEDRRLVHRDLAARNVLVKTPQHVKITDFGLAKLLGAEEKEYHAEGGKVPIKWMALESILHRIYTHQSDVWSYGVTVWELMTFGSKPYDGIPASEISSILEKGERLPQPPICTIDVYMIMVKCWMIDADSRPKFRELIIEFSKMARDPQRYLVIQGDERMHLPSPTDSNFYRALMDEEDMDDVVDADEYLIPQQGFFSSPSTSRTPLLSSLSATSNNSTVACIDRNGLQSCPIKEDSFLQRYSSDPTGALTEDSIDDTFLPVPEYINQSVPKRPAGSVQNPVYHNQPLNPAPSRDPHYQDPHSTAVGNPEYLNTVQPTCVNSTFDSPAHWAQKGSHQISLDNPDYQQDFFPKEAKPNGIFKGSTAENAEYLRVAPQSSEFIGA

SMILES | IC50 [1] [nM] | IC50 [2] [nM] | IC50 [3] [nM] | GI50 (BaF3-WT cells) [nM] | GI50 (BaF3-LR_TM_CS cells) [nM] | GI50 (BaF3-Del_TM_CS cells) [nM]
COc1cc(N2CCN(C)[C@H](C)C2)c(C)cc1Nc1nc(Nc2cccc3c2N(S(C)(=O)=O)CC3)c2cc[nH]c2n1 [Example 107, (R)—N2-(4-(3,4-dimethylpiperazin-1-yl)-2-methoxy-5-methylphenyl)-N4-(1-(methylsulfonyl)indolin-7-yl)-7H-pyrrolo[2,3-d]pyrimidine-2,4-diamine] | 417 | 4.8 | 7.1 | 1960 | 105 | 60.8
COc1cc(N2CCC(N3CCN(C)CC3)CC2)ccc1Nc1nc(Nc2cccc3c2N(S(C)(=O)=O)CC3)c2cc[nH]c2n1 [Example 90, N^2-(2-methoxy-4-(4-(4-methylpiperazin-1-yl)piperidin-1-yl)phenyl)-N^4-(1-(methylsulfonyl)indolin-7-yl)-7H-pyrrolo[2,3-d]pyrimidine-2,4-diamine] | 44 | 1.04 | 1.5 | 2560 | 191 | 87.5
COc1cc(N2CCC3(CCN(C)CC3)CC2)c(Cl)cc1Nc1nc(Nc2cccc3c2N(S(C)(=O)=O)CC3)c2cc[nH]c2n1 [Example 96, N^2-(5-chloro-2-methoxy-4-(9-methyl-3,9-diazaspiro[5.5]undecan-3-yl)phenyl)-N^4-(1-(methylsulfonyl)indolin-7-yl)-7H-pyrrolo[2,3-d]pyrimidine-2,4-diamine] | 109 | 1.4 | 1.7 | 1480 | 66.5 | 29.3
COc1cc(N2CCC(N3CCN(C)CC3)CC2)ccc1Nc1nc2c(c(Nc3cccc4c3N(S(C)(=O)=O)CC4)n1)CCC2 [Example 74, N^2-(2-methoxy-4-(4-(4-methylpiperazin-1-yl)piperidin-1-yl)phenyl)-N^4-(1-(methylsulfonyl)indolin-7-yl)-6,7-dihydro-5H-cyclopenta[d]pyrimidine-2,4-diamine] | 525 | 53 | 131 | 2350 | 617 | 436

These reach a lower IC50 [1]. Values come first.

IC50 [1] [nM] | IC50 [2] [nM] | IC50 [3] [nM] | GI50 (BaF3-WT cells) [nM] | GI50 (BaF3-LR_TM_CS cells) [nM] | GI50 (BaF3-Del_TM_CS cells) [nM] | SMILES
0.6 | 1.3 | 0.88 | 987 | 350 | 90.5 | CCN1CCN(C2CCN(c3ccc(Nc4nc(Nc5cccc6c5N(S(C)(=O)=O)CC6)c5cn[nH]c5n4)cc3F)CC2)CC1 [Example 76, N^6-(4-(4-(4-ethylpiperazin-1-yl)piperidin-1-yl)-3-fluorophenyl)-N^4-(1-(methylsulfonyl)indolin-7-yl)-1H-pyrazolo[3,4-d]pyrimidine-4,6-diamine]
14 | 21 | 121 | 1860 | 730 | 630 | COc1cc(N2CCC(N3CCN(C)CC3)CC2)ccc1Nc1ncc(Cl)c(Nc2cccc3c2N(S(=O)(=O)CCc2ccccc2)CC3)n1 [Example 8, 5-chloro-N^2-(2-methoxy-4-(4-(4-methylpiperazin-1-yl)piperidin-1-yl)phenyl)-N^4-(1-(phenethylsulfonyl)indolin-7-yl)pyrimidine-2,4-diamine]
0.64 | 0.48 | 0.36 | 511 | 66.1 | 14.6 | COc1cc(N2CCC(N3CCN(C)CC3)CC2)ccc1Nc1ncc(Cl)c(Nc2ccc(Br)c3c2N(S(C)(=O)=O)CC3)n1 [Example 2, N^4-(4-bromo-1-(methylsulfonyl)indolin-7-yl)-5-chloro-N^2-(2-methoxy-4-(4-(4-methylpiperazin-1-yl)piperidin-1-yl)phenyl)pyrimidine-2,4-diamine]
0.81 | 0.67 | 0.51 | 610 | 15.4 | 6.06 | CCc1cc(Nc2ncc(Cl)c(Nc3cccc4c3N(S(C)(=O)=O)CC4)n2)c(OC)cc1N1CCC(N2CCN(C)CC2)CC1 [Example 41, 5-chloro-N^2-(5-ethyl-2-methoxy-4-(4-(4-methylpiperazin-1-yl)piperidin-1-yl)phenyl)-N^4-(1-(methylsulfonyl)indolin-7yl)pyrimidine-2,4-diamine]
